Laboratory results reported in patent US20090075978A1, “SUBSTITUTED PROPIOLIC ACID AMIDES AND THEIR USE FOR PRODUCING DRUGS” (Grunenthal GmbH, priority 2005, published 2009).

Legend:
mGluR5 receptor (pig) = target: T1, mGluR5 receptor (pig) (Sus scrofa, UniProt I3LUI7); assay: [3H]-MPEP binding in the mGluR5 receptor binding assay (pig brain homogenate); conditions: 5 nM [3H]-MPEP; for mGluR5 receptor (pig) (10 μM) Inhibition (%): 10 μM test compound, 450 μg protein from pig brain homogenate, 60 min, room temperature; for IC50: pig brain homogenate
T1 construct: 450 μg of protein from brain homogenate is incubated; from tissue; host or cells: pig brain hemispheres without medulla, cerebellum and pons
Description: I. Method for Determining the Inhibition of [^3H]-MPEP Binding in the mGluR5 Receptor Binding Assay
Pig brain homogenate is produced by homogenisation (Polytron Pt 3000, Kinematica AG, 10,000 revolutions per minute for 90 seconds) of pig brain hemispheres without medulla, cerebellum and pons in a buffer of pH 8.0 (30 mM Hepes, Sigma, order number H3375+1 tablet Complete Roche Diagnostics, order number 1836145 made up to 100 ml) in a ratio of 1:20 (brain weight/volume) and differential centrifugation at 900×g and 40,000×g. 450 μg of protein from brain homogenate is incubated in each case in 250 μl incubation batches in 96-well microtitre plates with 5 nM ^3[H]-MPEP (Tocris, order number R1212) (MPEP=[…]) and the compounds to be investigated ([…]) in the buffer (as above) at room temperature for 60 min.
The batches are then filtered with the assistance of a Brandel Cell Harvester (Brandel, Robotic 9600 model) on Unifilter plates with glass filter mats (Perkin Elmer, order number 6005177) and then washed 3 times with buffer (as above) using 250 μl per sample. The filter plates are then dried for 60 min at 55° C. Then 30 μl of Ultima Gold™ scintillating material (Packard BioScience, order number 6013159) is added per well and after 3 hours the samples are measured using the β counter (Microbeta, Perkin Elmer). Nonspecific binding is determined by the addition of 10 μM MPEP (Tocris, order number 1212).

pain response in rats = assay: Formaldehyde test in rats (phase 2, chronic pain component); type: in vivo
Description: III. Formaldehyde Test in Rats:
The formaldehyde test (Dubuisson, D. and Dennis, S. G., 1977, Pain, 4, 161-174) is a model of acute and chronic pain. A biphasic nociceptive response is induced in freely mobile test animals by a single formaldehyde injection into the dorsal side of a hind paw, said response being detected by the observation of three clearly distinguishable behaviour patterns. The response is in two phases: phase 1=immediate response (duration up to 10 min; paw shaking, licking), phase 2=late response (after a resting phase; likewise paw shaking, licking; duration up to 60 min). […] In the investigations presented here, it was the chronic pain component (phase 2) which was evaluated.
Formaldehyde is administered subcutaneously in a volume of 50 μl and a concentration of 5% into the dorsal side of the right hind paw of each animal. […] The specific behavioural changes, such as raising and shaking the paw, changes in weight bearing of the animal and biting and licking responses are observed and recorded over the observation period of 21 to 27 min after the formaldehyde injection. The various behaviours are summarised as a “pain rate” (PR), which is the calculated nociceptive response averaged over 3 min sub-intervals. […]

mGluR5 receptor (human) = target: T2, mGluR5 receptor (human) (Homo sapiens, UniProt P41594); assay: Functional Ca2+ influx assay in the mGluR5 receptor assay (CHO-hmGluR5 cells, DHPG); type: cell-based; conditions: 10 μM DHPG, Ki=IC50/(1+(AGconc/EC50))
T2 construct: host or cells: CHO cells (CHO-hmGluR5), expression induced with doxycycline
Source text: II. Method for Determining Ca^2+ Influx in the mGluR5 Receptor Assay
An agonistic and/or antagonistic substance action on the mGluR5 receptor of the rat species may be determined with the following assay. According to this assay, intracellular Ca^2+ release is quantified after activation of the mGluR5 receptor with the assistance of a Ca^2+-sensitive dye (type Fluo-4, Molecular Probes Europe BV, Leiden, Netherlands) in a FlexStation (Molecular Devices, Sunnyvale, USA).
Description of the Functional Ca^2+ Influx Assay
20,000 CHO-hmGluR5 cells/well (Euroscreen, Gosselies, Belgium) are pipetted out into 96 well plates (BD Biosciences, Heidelberg, Germany, Ref. 356640, clear bottom, 96 well, poly-D-lysine) and incubated overnight in HBSS buffer (Gibco No. 14025-050) with the following additives: 10% FCS (GIBCO, 10270-106) and doxycycline (BD Biosciences Clontech 631311 600 ng/ml).
For the purpose of functional investigation, the cells were loaded with 2 μM Fluo-4 and 0.01 vol. % Pluronic F127 (Molecular Probes Europe BV, Leiden, Netherlands) in HBSS buffer (Hank's buffered saline solution, Gibco Invitrogen GmbH, Karlsruhe, Germany) with Probenicid (Sigma P8761, 0.69 mg/ml) for 30 min at 37° C.
The cells are then washed 3 times with washing buffer (HBSS buffer, Gibco No. 14025-050, with Probenicid (Sigma P8761, 0.69 [mg]/ml) and then resuspended with the same buffer to make up to 100 μl. After 15 min the plates are transferred for determination of Ca^2+ measurements in the presence of DHPG ((S)-3,5-dihydroxyphenylglycine, Tocris Biotrend Chemikalien GmbH, Cologne, Germany, final DHPG concentration: 10 μM) and in the presence or absence of test substances into a FLuorometric Imaging Plate Reader (FLIPR, Molecular Devices, Sunnyvale, Calif.).
Ca^2+-dependent fluorescence is measured before and after addition of test substances. Quantification proceeds by measuring the highest fluorescence intensity over time.
After recording a fluorescence baseline for 10 s, 50 μl of test substance solution (various test substance concentrations in HBSS buffer with 1% DMSO and 0.02% Tween 20, Sigma) are added and the fluorescence signal is measured for 6 min. Then, 50 μl of DHPG solution ((S)-3,5-dihydroxyphenylglycine, Tocris Biotrend Chemikalien GmbH, Cologne, Germany, final DHPG concentration: 10 μM) are added and Ca^2+ influx is simultaneously measured for 60 s. The final DMSO concentration amounts to 0.25% and the final Tween 20 content amounts to 0.005%. The data are analysed with Microsoft Excel and GraphPad Prism. The dose-response curves are calculated with non-linear regression and IC50 values are determined. Each data point is determined in triplicate and IC50 values are averaged from a minimum of 2 independent measurements.
Ki values are calculated using the following formula: Ki=IC50/(1+(AGconc/EC50)).
AGconc=10 μM; EC50 corresponds to the DHPG concentration which is necessary for the semimaximal influx of Ca^2+.

T2 sequence (P41594 21-1212): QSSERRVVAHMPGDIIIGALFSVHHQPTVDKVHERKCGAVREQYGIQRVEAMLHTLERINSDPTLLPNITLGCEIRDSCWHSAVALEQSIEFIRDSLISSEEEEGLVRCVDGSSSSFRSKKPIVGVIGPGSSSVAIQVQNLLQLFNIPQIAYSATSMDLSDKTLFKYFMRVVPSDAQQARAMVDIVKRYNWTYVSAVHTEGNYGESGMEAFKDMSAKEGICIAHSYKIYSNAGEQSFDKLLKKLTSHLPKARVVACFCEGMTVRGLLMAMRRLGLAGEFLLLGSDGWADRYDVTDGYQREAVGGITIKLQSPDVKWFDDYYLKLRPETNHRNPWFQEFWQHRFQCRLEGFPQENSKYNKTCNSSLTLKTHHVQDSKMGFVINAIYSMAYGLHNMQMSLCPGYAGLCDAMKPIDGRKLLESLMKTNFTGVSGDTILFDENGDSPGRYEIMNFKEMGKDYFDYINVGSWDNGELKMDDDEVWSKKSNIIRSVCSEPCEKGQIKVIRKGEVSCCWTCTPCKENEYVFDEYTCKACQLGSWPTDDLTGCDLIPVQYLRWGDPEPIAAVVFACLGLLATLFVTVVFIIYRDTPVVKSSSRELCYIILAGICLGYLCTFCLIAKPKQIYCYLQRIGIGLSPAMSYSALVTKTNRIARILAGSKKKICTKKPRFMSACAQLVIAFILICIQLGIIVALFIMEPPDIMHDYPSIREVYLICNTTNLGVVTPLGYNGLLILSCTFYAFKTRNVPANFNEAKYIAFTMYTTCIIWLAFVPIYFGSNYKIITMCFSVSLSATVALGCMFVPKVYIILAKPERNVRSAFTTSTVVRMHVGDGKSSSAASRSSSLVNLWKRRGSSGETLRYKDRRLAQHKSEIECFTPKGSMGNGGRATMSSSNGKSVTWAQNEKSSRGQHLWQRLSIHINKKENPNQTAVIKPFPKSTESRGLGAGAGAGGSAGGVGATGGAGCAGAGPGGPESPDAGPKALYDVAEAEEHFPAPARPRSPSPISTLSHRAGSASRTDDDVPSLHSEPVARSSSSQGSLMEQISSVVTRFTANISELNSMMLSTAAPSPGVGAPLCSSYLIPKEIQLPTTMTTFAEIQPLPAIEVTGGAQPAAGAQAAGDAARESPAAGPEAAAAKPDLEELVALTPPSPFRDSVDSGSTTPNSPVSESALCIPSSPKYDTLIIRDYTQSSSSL
T1 sequence (I3LUI7 19-1212): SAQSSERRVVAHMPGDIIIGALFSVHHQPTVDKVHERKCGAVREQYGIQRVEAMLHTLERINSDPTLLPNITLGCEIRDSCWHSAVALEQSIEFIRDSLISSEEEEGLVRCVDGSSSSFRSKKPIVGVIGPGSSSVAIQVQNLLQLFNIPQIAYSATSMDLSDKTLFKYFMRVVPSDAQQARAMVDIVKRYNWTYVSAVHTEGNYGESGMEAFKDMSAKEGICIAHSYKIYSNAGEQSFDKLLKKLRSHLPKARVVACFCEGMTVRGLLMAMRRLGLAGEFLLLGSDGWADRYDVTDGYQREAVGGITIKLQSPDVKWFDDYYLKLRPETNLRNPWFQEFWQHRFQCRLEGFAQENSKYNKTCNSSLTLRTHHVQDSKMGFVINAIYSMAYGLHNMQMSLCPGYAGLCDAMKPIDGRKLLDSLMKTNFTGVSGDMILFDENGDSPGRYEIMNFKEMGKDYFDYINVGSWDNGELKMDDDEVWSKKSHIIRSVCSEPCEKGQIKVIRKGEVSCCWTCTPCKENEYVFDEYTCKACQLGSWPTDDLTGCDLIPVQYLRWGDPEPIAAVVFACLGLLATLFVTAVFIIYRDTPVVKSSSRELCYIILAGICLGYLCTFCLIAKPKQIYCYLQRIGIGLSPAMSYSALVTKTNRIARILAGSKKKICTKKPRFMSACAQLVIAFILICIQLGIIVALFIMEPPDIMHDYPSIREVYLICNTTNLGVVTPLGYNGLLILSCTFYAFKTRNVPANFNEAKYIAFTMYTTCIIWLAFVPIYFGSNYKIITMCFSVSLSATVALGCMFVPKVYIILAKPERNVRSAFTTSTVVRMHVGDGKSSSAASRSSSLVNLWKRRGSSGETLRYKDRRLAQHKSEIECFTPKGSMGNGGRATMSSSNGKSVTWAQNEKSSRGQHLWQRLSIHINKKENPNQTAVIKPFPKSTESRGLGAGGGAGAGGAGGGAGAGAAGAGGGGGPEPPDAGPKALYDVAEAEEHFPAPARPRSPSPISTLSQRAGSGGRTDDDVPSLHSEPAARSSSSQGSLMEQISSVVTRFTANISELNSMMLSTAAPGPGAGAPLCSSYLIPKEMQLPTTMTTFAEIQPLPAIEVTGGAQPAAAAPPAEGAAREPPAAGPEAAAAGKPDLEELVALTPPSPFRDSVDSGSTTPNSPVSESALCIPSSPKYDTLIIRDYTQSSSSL

Structure (SMILES) | IC50 (mGluR5 receptor (pig)) [µM] | Ki (mGluR5 receptor (human)) [µM] | mGluR5 receptor (pig) (10 μM) Inhibition (%) (mGluR5 receptor (pig)) | further results
Cc1ccc(C#CC(=O)N2c3ccccc3CC2C)cc1F (stereo not shown) [Example 68, 1-(3-(3-fluoro-4-methylphenyl)-propiolyl)-2-methyl-indoline] | – | – | 11 | –
O=C(C#Cc1cccc(Cl)c1)N1CCc2cc(O)c(O)cc2C1 [Example 13, 2-(3-(3-chlorophenyl)-propiolyl)-7,6-dihydroxy-1,2,3,4-tetrahydro-isoquinoline] | 2.54 | – | – | –
COc1ccc(C#CC(=O)N2c3ccccc3CC2C)cc1 (stereo not shown) [Example 54, 1-(3-(4-methoxyphenyl)-propiolyl)-2-methyl-indoline] | – | – | 46 | –
Cc1cccc(C#CC(=O)N2CCc3ccccc3C2)c1 [Example 51, 2-(3-(3-tolyl)-propiolyl)-1,2,3,4-tetrahydro-isoquinoline] | – | – | 103 | –
Cc1cccc(C#CC(=O)N2c3ccccc3CC2C)c1 (stereo not shown) [Example 52, 1-(3-(3-tolyl)-propiolyl)-2-methyl-indoline] | – | – | 68 | –
O=C(C#Cc1cccs1)N1CCc2ccccc2C1 [Example 55, 2-(3-(2-thienyl)-propiolyl)-1,2,3,4-tetrahydro-isoquinoline] | – | – | 86 | –
CC1Cc2ccccc2N1C(=O)C#Cc1cccs1 (stereo not shown) [Example 56, 1-(3-(2-thienyl)-propiolyl)-2-methyl-indoline] | – | – | 48 | –
O=C(C#Cc1ccccc1)N1CCc2ccccc2C1 [Example 1, 2-(3-phenyl-propiolyl)-1,2,3,4-tetrahydro-isoquinoline] | 0.18 | 0.0115 | – | –
O=C(C#Cc1ccccc1)N1CCCc2ccccc21 [Example 2, 1-(3-phenyl-propiolyl)-1,2,3,4-tetrahydro-quinoline] | 1.75 | – | – | –
O=C(C#Cc1cccc(Cl)c1)N1CCc2ccccc2CC1 [Example 12, 3-(3-(3-chlorophenyl)-propiolyl)-1,2,4,5-tetrahydrobenzo[d]azepine] | 0.023 | 0.0003 | – | –
CC1Cc2ccccc2N1C(=O)C#Cc1ccccc1C(F)(F)F (stereo not shown) [Example 75, 1-(3-(2-trifluoromethylphenyl)-propiolyl)-2-methyl-indoline] | – | – | 45 | –
CC1Cc2ccccc2N1C(=O)C#Cc1ccccc1 (stereo not shown) [Example 44, 1-(3-phenyl-propiolyl)-2-methyl-indoline] | – | – | 39 | –
O=C(C#Cc1ccccc1)N1CCc2ncccc2C1 [Example 4, 6-(3-phenyl-propiolyl)-5,6,7,8-tetrahydro-[1,6]naphthyridine] | 2.32 | – | – | –
O=C(C#Cc1cccc(Cl)c1)N1CCc2ccccc2C1 [Example 5, 2-(3-(3-chlorophenyl)-propiolyl)-1,2,3,4-tetrahydro-isoquinoline] | 0.023 | 0.001 | – | –
Cc1cc(C#CC(=O)N2CCc3ccccc3C2)ccc1F [Example 35, 2-(3-(4-fluoro-3-methylphenyl)-propiolyl)-1,2,3,4-tetrahydro-isoquinoline] | – | – | 77 | –
COc1cc2c(cc1O)CN(C(=O)C#Cc1cccc(Cl)c1)CC2 [Example 15, 2-(3-(3-chlorophenyl)-propiolyl)-7-hydroxy-6-methoxy-1,2,3,4-tetrahydro-isoquinoline] | 0.72 | – | – | –

Continued, in another order:

IC50 (mGluR5 receptor (pig)) [µM] | Ki (mGluR5 receptor (human)) [µM] | Structure (SMILES) | mGluR5 receptor (pig) (10 μM) Inhibition (%) (mGluR5 receptor (pig)) | further results
0.0054 | 0.0012 | CC1c2ccccc2CCN1C(=O)C#Cc1cccc(Cl)c1 (stereo not shown) [Example 18, 2-(3-(3-chlorophenyl)-propiolyl)-1-methyl-1,2,3,4-tetrahydro-isoquinoline] | – | ED50 (pain response in rats; iv, rat, i.v., 30 min before formaldehyde): 1.06 mg/kg; Formaldehyde test (rat) per os Reduction in nociceptive behaviour relative to control at 10 mg/kg [%] (pain response in rats; per os, 10 mg/kg): 41%
0.053 | 0.0049 | CC1Cc2ccccc2CN1C(=O)C#Cc1cccc(Cl)c1 (stereo not shown) [Example 19, 2-(3-(3-chlorophenyl)-propiolyl)-3-methyl-1,2,3,4-tetrahydro-isoquinoline] | – | –
0.0026 | – | Cc1cccc2c1C(C)N(C(=O)C#Cc1cccc(Cl)c1)CC2 (stereo not shown) [Example 31, 2-(3-(3-chlorophenyl)-propiolyl)-1,8-dimethyl-1,2,3,4-tetrahydro-isoquinoline] | – | –
0.0015 | 0.0009 | COc1cccc2c1CCN(C(=O)C#Cc1cccc(Cl)c1)C2 [Example 30, 2-(3-(3-chlorophenyl)-propiolyl)-5-methoxy-1,2,3,4-tetrahydro-isoquinoline] | – | –
